Measurements as given in PubChem BioAssay AID2060606 (Molecular Pharmacology Branch, DTP, NCI, 2025).

Test system: 922993-354-T-J3-PDC complex spheroids, viability, % test/control
Experiment: Anticancer human tumor 922993-354-T-J3-PDC patient-derived endometrial carcinoma cell line growth inhibition [CLK]
Conditions: for IC50: curve of first compound; for viability, T/C: stronger effect = lower value; active = viability on the fitted dose curve at most 10% of control; inactive = the rest
Method in brief: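 Multi-cell-type spheroids combined patient-derived tumor cells with HUVEC endothelial cells and human mesenchymal stem cells. Paired agents were dosed in half-log steps down from about clinical Cmax, or from 10 microM where Cmax was unknown.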

[1] = second compound 0.0316 µM, first compound 0.00949 µM
[2] = second compound 0.0316 µM, first compound 0.03 µM
[3] = second compound 0.0316 µM, first compound 0.0949 µM
[4] = second compound 0.0316 µM, first compound 0.3 µM
[5] = second compound 0.1 µM, first compound 0.00949 µM
[6] = second compound 0.1 µM, first compound 0.03 µM
[7] = second compound 0.1 µM, first compound 0.0949 µM
[8] = second compound 0.1 µM, first compound 0.3 µM
[9] = second compound 0.316 µM, first compound 0.00949 µM
[10] = second compound 0.316 µM, first compound 0.03 µM
[11] = second compound 0.316 µM, first compound 0.0949 µM
[12] = second compound 0.316 µM, first compound 0.3 µM
[13] = second compound 1 µM, first compound 0.00949 µM
[14] = second compound 1 µM, first compound 0.03 µM
[15] = second compound 1 µM, first compound 0.0949 µM
[16] = second compound 1 µM, first compound 0.3 µM
[17] = second compound 3.16 µM, first compound 0.00949 µM
[18] = second compound 3.16 µM, first compound 0.03 µM
[19] = second compound 3.16 µM, first compound 0.0949 µM
[20] = second compound 3.16 µM, first compound 0.3 µM
[21] = second compound 10 µM, first compound 0.00949 µM
[22] = second compound 10 µM, first compound 0.03 µM
[23] = second compound 10 µM, first compound 0.0949 µM
[24] = second compound 10 µM, first compound 0.3 µM
[25] = second compound 0.0316 µM, first compound 0.0316 µM
[26] = second compound 0.0316 µM, first compound 0.1 µM
[27] = second compound 0.0316 µM, first compound 0.316 µM
[28] = second compound 0.0316 µM, first compound 1 µM
[29] = second compound 0.0316 µM, first compound 3.16 µM
[30] = second compound 0.0316 µM, first compound 10 µM
[31] = second compound 0.1 µM, first compound 0.0316 µM
[32] = second compound 0.1 µM, first compound 0.1 µM
[33] = second compound 0.1 µM, first compound 0.316 µM
[34] = second compound 0.1 µM, first compound 1 µM
[35] = second compound 0.1 µM, first compound 3.16 µM
[36] = second compound 0.1 µM, first compound 10 µM
[37] = second compound 0.316 µM, first compound 0.0316 µM
[38] = second compound 0.316 µM, first compound 0.1 µM
[39] = second compound 0.316 µM, first compound 0.316 µM
[40] = second compound 0.316 µM, first compound 1 µM
[41] = second compound 0.316 µM, first compound 3.16 µM
[42] = second compound 0.316 µM, first compound 10 µM
[43] = second compound 1 µM, first compound 0.0316 µM
[44] = second compound 1 µM, first compound 0.1 µM
[45] = second compound 1 µM, first compound 0.316 µM
[46] = second compound 1 µM, first compound 1 µM
[47] = second compound 1 µM, first compound 3.16 µM
[48] = second compound 1 µM, first compound 10 µM
[49] = second compound 3.16 µM, first compound 0.0316 µM
[50] = second compound 3.16 µM, first compound 0.1 µM
[51] = second compound 3.16 µM, first compound 0.316 µM
[52] = second compound 3.16 µM, first compound 1 µM
[53] = second compound 3.16 µM, first compound 3.16 µM
[54] = second compound 3.16 µM, first compound 10 µM
[55] = second compound 10 µM, first compound 0.0316 µM
[56] = second compound 10 µM, first compound 0.1 µM
[57] = second compound 10 µM, first compound 0.316 µM
[58] = second compound 10 µM, first compound 1 µM
[59] = second compound 10 µM, first compound 3.16 µM
[60] = second compound 10 µM, first compound 10 µM
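Note: spheroids exposed to the agents for 7 days before readout.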

C=CC(=O)Nc1cc(Nc2nccc(-c3cn(C)c4ccccc34)n2)c(OC)cc1N(C)CCN(C)C + CN1CCN(c2cc(C(=O)Nc3cc4cc(-c5cnn(C)c5)ccc4cn3)ccn2)CC1
> 300 nM: IC50 (second compound 0.0316 µM) | IC50 (second compound 0.1 µM)
active: viability, T/C (second compound 1 µM, first compound 0.000949 µM) 0.12% | viability, T/C (second compound 1 µM, first compound 0.003 µM) 0.13% | viability, T/C [13] 1.12% | viability, T/C [14] 0.1% | viability, T/C [15] 0.1% | viability, T/C [16] 1.55% | viability, T/C (second compound 3.16 µM, first compound 0.000949 µM) 0.11% | viability, T/C (second compound 3.16 µM, first compound 0.003 µM) 0.14% | viability, T/C [17] 0.14% | viability, T/C [18] 0.7% | viability, T/C [19] 0.13% | viability, T/C [20] 1.62% | viability, T/C (second compound 10 µM, first compound 0.000949 µM) 0.15% | viability, T/C (second compound 10 µM, first compound 0.003 µM) 0.17% | viability, T/C [21] 1.16% | viability, T/C [22] 0.16% | viability, T/C [23] 1.05% | viability, T/C [24] 0.62%
inactive: viability, T/C (second compound 0.0316 µM, first compound 0.000949 µM) 98.9% | viability, T/C (second compound 0.0316 µM, first compound 0.003 µM) 98.4% | viability, T/C [1] 101% | viability, T/C [2] 108% | viability, T/C [3] 97.4% | viability, T/C [4] 73.1% | viability, T/C (second compound 0.1 µM, first compound 0.000949 µM) 96.7% | viability, T/C (second compound 0.1 µM, first compound 0.003 µM) 97.7% | viability, T/C [5] 83.7% | viability, T/C [6] 69% | viability, T/C [7] 81% | viability, T/C [8] 63.3% | viability, T/C (second compound 0.316 µM, first compound 0.000949 µM) 41.8% | viability, T/C (second compound 0.316 µM, first compound 0.003 µM) 45.5% | viability, T/C [9] 44.2% | viability, T/C [10] 22.8% | viability, T/C [11] 31.7% | viability, T/C [12] 27.8%
< 0.949 nM: IC50 (second compound 0.316 µM) | IC50 (second compound 1 µM) | IC50 (second compound 3.16 µM) | IC50 (second compound 10 µM)

CC1(C)CCC(CN2CCN(c3ccc(C(=O)NS(=O)(=O)c4ccc(NCC5CCOCC5)c([N+](=O)[O-])c4)c(Oc4cnc5[nH]ccc5c4)c3)CC2)=C(c2ccc(Cl)cc2)C1 + CN1CCN(c2cc(C(=O)Nc3cc4cc(-c5cnn(C)c5)ccc4cn3)ccn2)CC1
< 31.6 nM: IC50 (second compound 0.316 µM) | IC50 (second compound 1 µM) | IC50 (second compound 3.16 µM) | IC50 (second compound 10 µM)
inactive: viability, T/C [25] 109% | viability, T/C [26] 109% | viability, T/C [27] 97% | viability, T/C [28] 105% | viability, T/C [29] 112% | viability, T/C [30] 18.2% | viability, T/C [31] 97.1% | viability, T/C [32] 90.4% | viability, T/C [33] 79.8% | viability, T/C [34] 97.7% | viability, T/C [35] 87.1% | viability, T/C [37] 40% | viability, T/C [38] 38% | viability, T/C [39] 39.8% | viability, T/C [40] 32.5% | viability, T/C [41] 29.9%
5420 nM: IC50 (second compound 0.1 µM)
active: viability, T/C [36] 7.76% | viability, T/C [42] 1.44% | viability, T/C [43] 0.16% | viability, T/C [44] 0.69% | viability, T/C [45] 0.19% | viability, T/C [46] 0.86% | viability, T/C [47] 1.06% | viability, T/C [48] 0.1% | viability, T/C [49] 0.36% | viability, T/C [50] 0.14% | viability, T/C [51] 0.14% | viability, T/C [52] 0.11% | viability, T/C [53] 2.58% | viability, T/C [54] 1.27% | viability, T/C [55] 0.15% | viability, T/C [56] 0.14% | viability, T/C [57] 1.91% | viability, T/C [58] 0.13% | viability, T/C [59] 0.16% | viability, T/C [60] 2.48%
6610 nM: IC50 (second compound 0.0316 µM)

NC(=O)C(=Cn1cnc(-c2cc(C(F)(F)F)cc(C(F)(F)F)c2)n1)c1cncnc1 + CN1CCN(c2cc(C(=O)Nc3cc4cc(-c5cnn(C)c5)ccc4cn3)ccn2)CC1
229 nM: IC50 (second compound 0.0316 µM)
< 9.49 nM: IC50 (second compound 0.316 µM) | IC50 (second compound 1 µM) | IC50 (second compound 3.16 µM) | IC50 (second compound 10 µM)
inactive: viability, T/C [1] 119% | viability, T/C [2] 115% | viability, T/C [3] 82.1% | viability, T/C [4] 40.1% | viability, T/C (second compound 0.0316 µM, first compound 0.949 µM) 30.6% | viability, T/C (second compound 0.0316 µM, first compound 3 µM) 41.2% | viability, T/C [5] 118% | viability, T/C [6] 118% | viability, T/C [7] 80.7% | viability, T/C [8] 21.7% | viability, T/C (second compound 0.1 µM, first compound 0.949 µM) 21.5% | viability, T/C (second compound 0.1 µM, first compound 3 µM) 20% | viability, T/C [9] 48.8% | viability, T/C [10] 32.3%
active: viability, T/C [11] 4.78% | viability, T/C [12] 1.32% | viability, T/C (second compound 0.316 µM, first compound 0.949 µM) 0.16% | viability, T/C (second compound 0.316 µM, first compound 3 µM) 1.43% | viability, T/C [13] 0.11% | viability, T/C [14] 0.75% | viability, T/C [15] 0.12% | viability, T/C [16] 0.07% | viability, T/C (second compound 1 µM, first compound 0.949 µM) 0.71% | viability, T/C (second compound 1 µM, first compound 3 µM) 2.13% | viability, T/C [17] 0.1% | viability, T/C [18] 0.13% | viability, T/C [19] 0.17% | viability, T/C [20] 1.63% | viability, T/C (second compound 3.16 µM, first compound 0.949 µM) 1.45% | viability, T/C (second compound 3.16 µM, first compound 3 µM) 2.46% | viability, T/C [21] 0.14% | viability, T/C [22] 0.16% | viability, T/C [23] 1.88% | viability, T/C [24] 0.19% | viability, T/C (second compound 10 µM, first compound 0.949 µM) 0.8% | viability, T/C (second compound 10 µM, first compound 3 µM) 2.01%
173 nM: IC50 (second compound 0.1 µM)

Nc1ccccc1NC(=O)c1ccc(CNC(=O)OCc2cccnc2)cc1 + CN1CCN(c2cc(C(=O)Nc3cc4cc(-c5cnn(C)c5)ccc4cn3)ccn2)CC1
4690 nM: IC50 (second compound 0.1 µM)
inactive: viability, T/C [25] 111% | viability, T/C [26] 114% | viability, T/C [27] 103% | viability, T/C [28] 90.3% | viability, T/C [29] 62% | viability, T/C [30] 51.9% | viability, T/C [31] 103% | viability, T/C [32] 97.2% | viability, T/C [33] 83.8% | viability, T/C [34] 60.1% | viability, T/C [35] 59.6% | viability, T/C [36] 41.7% | viability, T/C [37] 39.8% | viability, T/C [38] 29.3% | viability, T/C [39] 31.7% | viability, T/C [40] 33% | viability, T/C [41] 6.16%
< 31.6 nM: IC50 (second compound 0.316 µM) | IC50 (second compound 1 µM) | IC50 (second compound 3.16 µM) | IC50 (second compound 10 µM)
active: viability, T/C [42] 1.51% | viability, T/C [43] 0.15% | viability, T/C [44] 1.32% | viability, T/C [45] 0.79% | viability, T/C [46] 0.09% | viability, T/C [47] 0.26% | viability, T/C [48] 1.83% | viability, T/C [49] 0.61% | viability, T/C [50] 0.12% | viability, T/C [51] 1.29% | viability, T/C [52] 0.65% | viability, T/C [53] 1.19% | viability, T/C [54] 1.23% | viability, T/C [55] 0.11% | viability, T/C [56] 0.14% | viability, T/C [57] 2.33% | viability, T/C [58] 0.14% | viability, T/C [59] 2.41% | viability, T/C [60] 2.96%
> 10000 nM: IC50 (second compound 0.0316 µM)
